Laboratory results taken from patent publication US20120015352A1, “METHOD OF DETERMINING SENSITIVITY OF HUMAN OR NON-HUMAN ANIMAL CELLS TO AN IAP ANTAGONIST” (Otto-von-Guericke-Universitat Magdeburg, priority 2009, published 2012).
Residues, ends and D or L forms follow the SMILES beside them. *: point of attachment. Cbz = O=C(OCc1ccccc1)*; CH2F = FC*

What was measured:
[1] = system: A5-RT3 cells; test: Cytotoxicity assay (crystal violet); assay type: cell-based, human
Experimental: (§1) Cytotoxicity assay. Crystal violet staining of attached, living cells was performed 20-24 h after stimulation with the indicated concentrations of TRAIL or CD95L in 96 well plates in triplicate wells per condition as described^37. The optical density (OD) of control cultures was normalized to 100% compared to stimulated cells. For statistical analysis the standard error of mean (SEM) was determined for 3-7 independent experiments of each cell line and stimulatory condition.

[2] = system: HaCaT cells; test: Cytotoxicity assay (crystal violet); assay type: cell-based, human
Experimental: as §1

[3] = system: HaCaT cells; test: Immunofluorescence microscopy (Hoechst 33342, nuclear morphology); assay type: cell-based, human; details: zVAD-fmk 10 μM; for protection from cell death: CD95L 24 hrs
Experimental: Immunofluorescence microscopy. For detection of nuclear morphology, 5×10^4 cells of the respective cells were seeded per well in a 12-well plate. Subsequently, cells were incubated with Hoechst 33342 (5 μg/ml) for 15 min at 37° C. immediately followed by phase contrast or fluorescence microscopy using a suitable instrument (Leica). Digital images were identically processed using appropriate software.

[4] = target: T1, TRAF2 (human, UniProt Q12933 2-501); test: caspase-8 co-immunoprecipitation (complex II), Western blot
T1 construct: Endogenous protein
T1 sequence (looked up): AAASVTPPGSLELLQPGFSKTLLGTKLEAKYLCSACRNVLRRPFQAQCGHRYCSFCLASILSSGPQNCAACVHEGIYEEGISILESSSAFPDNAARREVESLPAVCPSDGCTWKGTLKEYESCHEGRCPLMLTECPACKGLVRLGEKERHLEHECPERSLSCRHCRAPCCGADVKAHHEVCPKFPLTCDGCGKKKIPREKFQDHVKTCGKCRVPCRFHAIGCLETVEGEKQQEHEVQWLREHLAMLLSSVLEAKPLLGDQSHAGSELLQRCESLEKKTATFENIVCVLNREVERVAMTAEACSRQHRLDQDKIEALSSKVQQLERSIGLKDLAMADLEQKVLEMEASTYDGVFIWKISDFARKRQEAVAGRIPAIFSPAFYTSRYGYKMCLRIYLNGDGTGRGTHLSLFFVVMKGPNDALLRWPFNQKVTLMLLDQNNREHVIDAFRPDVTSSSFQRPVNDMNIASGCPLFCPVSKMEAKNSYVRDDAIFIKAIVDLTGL

[5] = target: T2, RIP1 (human, UniProt Q13546 1-671); test: CD95L-Fc ligand affinity precipitation of the DISC from control-infected HaCaT cells, Western blot
T2 construct: Endogenous protein; also called kinase RIP1; full length RIP1
T2 sequence (looked up): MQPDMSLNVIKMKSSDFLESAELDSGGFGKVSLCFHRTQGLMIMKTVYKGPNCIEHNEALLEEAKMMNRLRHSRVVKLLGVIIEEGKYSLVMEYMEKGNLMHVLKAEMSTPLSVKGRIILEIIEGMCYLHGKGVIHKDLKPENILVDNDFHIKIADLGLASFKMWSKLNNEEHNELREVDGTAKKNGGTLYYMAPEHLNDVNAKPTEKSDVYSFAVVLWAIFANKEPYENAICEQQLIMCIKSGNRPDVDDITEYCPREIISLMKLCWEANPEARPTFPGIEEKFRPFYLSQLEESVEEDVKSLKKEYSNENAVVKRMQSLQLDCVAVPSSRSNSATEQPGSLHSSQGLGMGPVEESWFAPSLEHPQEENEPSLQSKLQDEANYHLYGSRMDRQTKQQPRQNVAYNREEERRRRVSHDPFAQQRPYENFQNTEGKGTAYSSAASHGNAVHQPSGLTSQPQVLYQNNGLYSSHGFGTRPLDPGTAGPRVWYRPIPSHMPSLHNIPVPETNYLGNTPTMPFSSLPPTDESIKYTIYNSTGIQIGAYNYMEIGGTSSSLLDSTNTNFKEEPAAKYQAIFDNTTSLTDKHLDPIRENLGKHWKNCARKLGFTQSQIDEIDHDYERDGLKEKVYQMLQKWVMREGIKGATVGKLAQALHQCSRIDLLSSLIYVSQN
Experimental: (§2) Ligand affinity precipitation of Receptor complexes. For the precipitation of the CD95L DISC, 5×10⁶ cells were used for each condition. Cells were washed once with medium at 37° C. and subsequently preincubated for 1 h with 10 μM zVAD-fmk and, as indicated with 100 nM IAP inhibitor at 37° C. Subsequently cells were treated with 250 units/ml CD95L-Fc for 2 h or, for the unstimulated control, in the absence of ligands. Receptor complex formation was stopped by washing the monolayer four times with ice-cold PBS. Cells were lysed on ice by addition of 2 ml lysis buffer (30 mM Tris-HCl pH 7.5 at 21° C., 120 mM NaCl, 10% Glycerol, 1% Triton X-100, Complete® protease inhibitor cocktail (Roche Molecular Diagnostics, Mannheim, Germany)). After 30 min lysis on ice, the lysates were centrifuged two times at 20,000×g for 5 min and 30 min, respectively, to remove cellular debris. A minor fraction of these clear lysates were used to control for the input of the respective proteins. For the precipitation of the CD95 receptor and stimulation-dependent recruited proteins, Apo-1 IgG3 antibodies (kindly provided by P. H. Krammer) were added to the lysates prepared from non-stimulated as well as stimulated cells to precipitate the receptor-interacting proteins. […]

[6] = target: T1, TRAF2; test: CD95L-Fc ligand affinity precipitation of the CD95 DISC, Western blot
Experimental: as §2

[7] = system: A375 melanoma cells; test: Fc-CD95L unit determination (killing of cells); assay type: cell-based; details: one unit = 1:500 dilution of stock Fc-CD95L supernatant
Experimental: Materials. […] B-actin Abs were from a suitable source. His-FLAG-TRAIL (HF-TRAIL) was produced as recently described^17. For expression of Fc-CD95L we used a construct recently published^57 (kindly provided by P. Schneider, Epalinges, Switzerland). One unit of Fc-CD95L was determined as a 1:500 dilution of the stock Fc-CD95L supernatant, and one unit/ml of Fc-CD95L supernatant was sufficient to kill 50 percent (LD50) of A375 melanoma cells, as recently described^58. […] Horseradish peroxidase (HRP)-conjugated goat anti-rabbit, goat anti rat IgG, goat anti-mouse IgG Abs and HRP-conjugated goat anti-mouse IgG1, IgG2a, IgG2b, and IgG1κ were obtained from Southern Biotechnology Associates (Birmingham, Ala.). TRAIL-R1 (HS 101), TRAIL-R2 (HS 201), mAbs for FACScan analysis of surface receptor expression were used as previously described^26 and are available from Alexis (San Diego, Calif.). CD95 Abs (Apo-1 IgG1 and IgG3a) were kindly provided by P. H. Krammer (German Cancer Research Center, Heidelberg, Germany). Cy5-conjugated Annexin V was purchased from Pharmingen (Hamburg, Germany). The IAP inhibitor (compound A) was provided by Tetralogic Pharmaceuticals (Malvern, Pa., USA). Compound A is exemplified in US20060194741, which is incorporated in its entirety by reference herein, and Compound A has the following structure: […]

## CN1C(=O)C(Cc2c[nH]c3ccccc23)NC1=S (stereo not drawn) [necrostatin-1]
[1]; cFLIP-shRNA A5-RT3 cells, necrostatin-1 50 μM, IAP inhibitor, CD95L
  protection from death ligand-mediated cell death: ineffective
[2]; cFLIPS-expressing HaCaT, IAP inhibitor + CD95L, necrostatin-1 50 μM, 24 hrs
  protection from CD95L-mediated cell death: fully protected
[2]; necrostatin-1 50 μM added to zVAD-fmk-protected cells, IAP inhibitor 100 nM
  protection from TRAIL- or CD95L-mediated cell death: fully recovered viability
[2]; necrostatin-1 50 μM alone, no caspase inhibitor, IAP inhibitor 100 nM
  protection from death ligand-mediated cell death: ineffective

## COC(=O)C[C@H](NC(=O)[C@H](C)NC(=O)[C@@H](NC(=O)OCc1ccccc1)C(C)C)C(=O)CF [zVAD-fmk] (Cbz-Val-Ala-Asp(OMe)-CH2F)
[3]; CD95L 4 hrs, in the presence of IAP inhibitor
  protection of cellular morphology or DNA fragmentation: fully protected
[3]; in the presence of IAPs (no IAP inhibitor)
  protection from cell death: complete protection
[3]; with IAP inhibitor
  protection from cell death: did not protect
[1]; cFLIP-downregulated cells insensitive to IAP inhibitor, zVAD-fmk
  protection from death ligand-mediated cell death: fully protected
[2]; cFLIPS-expressing HaCaT, IAP inhibitor + CD95L, zVAD-fmk 10 μM
  protection from death receptor-mediated cell death: not protected
[2]; zVAD-fmk 10 μM, in the presence of IAP inhibitor 100 nM
  block of TRAIL- or CD95L-mediated cell death: only partially blocked
[2]; zVAD-fmk 10 μM, without IAP inhibitor, 24 hrs
  block of TRAIL- or CD95L-mediated cell death: fully blocked cell death

B1: caspase-8 (enzyme, human, UniProt Q14790 1-479, looked up)
chain: MDFSRNLYDIGEQLDSEDLASLKFLSLDYIPQRKQEPIKDALMLFQRLQEKRMLEESNLSFLKELLFRINRLDLLITYLNTRKEEMERELQTPGRAQISAYRVMLYQISEEVSRSELRSFKFLLQEEISKCKLDDDMNLLDIFIEMEKRVILGEGKLDILKRVCAQINKSLLKIINDYEEFSKERSSSLEGSPDEFSNGEELCGVMTISDSPREQDSESQTLDKVYQMKSKPRGYCLIINNHNFAKAREKVPKLHSIRDRNGTHLDAGALTTTFEELHFEIKPHDDCTVEQIYEILKIYQLMDHSNMDCFICCILSHGDKGIIYGTDGQEAPIYELTSQFTGLKCPSLAGKPKVFFIQACQGDNYQKGIPVETDSEEQPYLEMDLSSPQTRYIPDEADFLLGMATVNNCVSYRNPAEGTWYIQSLCQSLRERCPRGDDILTILTEVNYEVSNKDDKKNMGKQMPQPTFTLRKKLVFPSD
notes: Endogenous protein in cell lysates; also called caspase-8 p43/41 (cleaved form seen in the DISC)
[4]
  binding result: no binding

B2: CD95 (receptor, human, UniProt P25445 26-335, looked up)
chain: QVTDINSKGLELRKTVTTVETQNLEGLHHDGQFCHKPCPPGERKARDCTVNGDEPDCVPCQEGKEYTDKAHFSSKCRRCRLCDEGHGLEVEINCTRTQNTKCRCKPNFFCNSTVCEHCDPCTKCEHGIIKECTLTSNTKCKEEGSRSNLGWLCLLLLPIPLIVWVKRKEVQKTCRKHRKENQGSHESPTLNPETVAINLSDVDLSKYITTIAGVMTLSQVKGFVRKNGVNEAKIDEIKNDNVQDTAEQKVQLLRNWHQLHGKKEAYDTLIKDLKKANLCTLAEKIQTIILKDITSDSENSNFRNEIQSLV
notes: whole, on cells; recruitment to it may be indirect (through FADD); also called CD95 DISC; CD95 receptor
[5]
  binding result: binds
[6]
  binding result: no binding

B3: Fc-CD95L: Fc-CD95L supernatant expressed from a published construct; death ligand (protein)
chain: EKKELRKVAHLTGKSNSRSMPLEWEDTYGIVLLSGVKYKKGGLVINETGLYFVYSKVYFRGQSCNNLPLSHKVYMRNSKYPQDLVMMEGKMMSYCTTGQMWARSSYLGAVFNLTSADHLYVNVSELSLVNFEESQTFFGLYKL
modifications: left off: a dimerising Fc or GST
notes: Fc-CD95L supernatant expressed from a published construct; death ligand
[7]
  LD50 (kill 50 percent of cells): one
